Measurements taken from patent publication US12220410B2, “Antitumor composition” (priority 2019, dated 2025).
Read-outs that look alike come from different tables or passages of the source.

Columns and labels:
[1] = system: human follicular lymphoma cell line DOHH-2; test: In vitro cell growth inhibition test (CellTiter-Fluor), DOHH-2; assay type: cell-based; details: for IC50: Homo sapiens, DOHH-2, 120 h; for FIC (fractional inhibitory concentration): DOHH-2
[2] = system: human diffuse large B-cell lymphoma (DLBCL) cell line OCI-Ly7; test: In vitro cell growth inhibition test, OCI-Ly7 (cell viability, combination index); assay type: cell-based; details: compound A 0 nM, OCI-Ly7
[3] = system: human diffuse large B-cell lymphoma cell line OCI-Ly7; assay type: in vivo
[4] = system: human diffuse large B-cell lymphoma cell line OCI-Ly7; assay type: in vivo; remark: listed apart in the source
[5] = system: human acute myelogenous leukemia (AML) cell line KG-1; assay type: in vivo
[6] = system: human acute myelogenous leukemia (AML) cell line KG-1; assay type: in vivo; remark: listed apart in the source
[7] = system: human breast cancer cell line MDA-MB-453; test: In vivo antitumor effect test, MDA-MB-453 tumor, compound A and lapatinib (Example 37); design: species or system NOD-SCID mice
Description: The tumor volume was calculated from tumor diameters by the following formula: (Long diameter×[Short diameter]^2×0.5). Using the calculated tumor volume value, the relative tumor volume (ratio of the tumor volume on the day of measurement to the baseline tumor volume on Day 1) was calculated. […] Further, the tumor growth delay rate (% TGD) was calculated according to the following formula: % TGD={(T−C)/C}×100, Where: • T: […] relative tumor volume of the control group to reach 1600% 6) Statistical Analysis
Compound A was suspended in a 1% hypromellose solution to prepare 20 mg/mL test substance suspensions (a suspension for preparing a single administration solution and a suspension for preparing a 100 mg/kg combined administration solution). The 20 mg/mL test substance suspensions were diluted with a 1% hypromellose solution to prepare 10 mg/mL (100 mg/kg administration solution), 6 mg/mL (suspension for preparing a 30 mg/kg combined administration solution), and 3 mg/mL (30 mg/kg administration solution) test substance suspensions. Lapatinib was suspended in a 1% hypromellose solution to prepare a 20 mg/mL suspension for preparing a 100 mg/kg lapatinib combined administration solution. The 20 mg/mL suspension was diluted with a 1% hypromellose solution to prepare a 10 mg/mL suspension for 100 mg/kg single administration. The administration solution of the combination group was prepared by mixing the 6 mg/mL compound A suspension and the 20 mg/mL lapatinib suspension at 1:1, or mixing the 20 mg/mL compound A suspension and the 20 mg/mL lapatinib suspension at 1:1.
MDA-MB-453 was obtained from ATCC. […] The collected cells were suspended in serum-free RPMI 1640 medium at 1.0×10^8 cells/mL.
5-week-old female NOD-SCID mice (NOD.CB17-Prkdcscid/J, produced by Charles River Japan Co., Ltd.) were used. The female NOD-SCID mice were bred in the same manner as in Example 36. The cell suspension was inoculated at 2×10^7 cells/body into the subcutaneous space of the right axillary region of the 6-week-old NOD-SCID mice, and the mice were grouped in the same manner as in Example 36 using the tumor volume as an index.
The administration was started on the next day of the grouping (Day 2), and compound A and lapatinib were orally administered once a day for 28 consecutive days. Each group (N=8) was treated as follows. • (1) Control (solvent control) group: 1% hypromellose solution • (2) Compound A (30 mg/kg) treated group: 30 mg/kg of compound A (oral administration once a day for 28 consecutive days) • (3) Compound A (100 mg/kg) treated group: 100 mg/kg of compound A (oral administration once a day for 28 consecutive days) • (4) Lapatinib (100 mg/kg) treated group: 100 mg/kg of lapatinib (oral administration once a day for 28 consecutive days) • (5) Combination group 1: 30 mg/kg of compound A (oral administration once a day for 28 consecutive days)+100 mg/kg of lapatinib (oral administration once a day for 28 consecutive days) • (6) Combination group 2: 100 mg/kg of compound A (oral administration once a day for 28 consecutive days)+100 mg/kg of lapatinib (oral administration once a day for 28 consecutive days)

[8] = system: human diffuse large B-cell lymphoma cell line OCI-Ly7; assay type: in vivo; remark: listed apart in the source
[9] = bendamustine 15 mg/kg intraperitoneally on Days 2, 3, 4, 5, 6, relative tumor volume 1600%
[10] = cyclophosphamide 50 mg/kg intraperitoneally on Days 2, 5, 9, 12, relative tumor volume 1600%
[11] = lapatinib 100 mg/kg orally once a day for 28 days, relative tumor volume 200%
[12] = rituximab 10 mg/kg intraperitoneally on Days 2, 9, 16, relative tumor volume 600%

Molecule: Cn1c(CCCC(=O)O)nc2cc(N(CCCl)CCCl)ccc21 [Bendamustine]
- IC50 ([1]; read-out: IC50 value of bendamustine in each concentration of compound A, compound A 0 nM (bendamustine alone), DOHH-2, 1000 cells/well, 120 hours): 9.87 µM
- IC50 ([1]; read-out: IC50 value of bendamustine in each concentration of compound A, compound A 39.1 nM, DOHH-2, 120 hours): 5.59 µM
- IC50 ([1]; read-out: IC50 value of bendamustine in each concentration of compound A, compound A 78.1 nM, DOHH-2, 120 hours): 2.96 µM
- IC50 ([1]; read-out: IC50 value of bendamustine in each concentration of compound A, compound A 156.3 nM, DOHH-2, 120 hours): 1.5 µM
- IC50 ([1]; read-out: IC50 value of bendamustine in each concentration of compound A, compound A 312.5 nM, DOHH-2, 120 hours): 0.0405 µM
- FIC (fractional inhibitory concentration) ([1]; bendamustine fixed at 0 nM, compound A at its IC50): 0
- FIC (fractional inhibitory concentration) ([1]; bendamustine fixed at 1250 nM, compound A at its IC50): 0.127
- FIC (fractional inhibitory concentration) ([1]; bendamustine fixed at 2500 nM, compound A at its IC50): 0.253
- FIC (fractional inhibitory concentration) ([1]; bendamustine fixed at 5000 nM, compound A at its IC50): 0.506
- FIC (fractional inhibitory concentration) ([1]; compound A fixed at 0 nM, bendamustine at its IC50): 1
- FIC (fractional inhibitory concentration) ([1]; compound A fixed at 39.1 nM, bendamustine at its IC50): 0.566
- FIC (fractional inhibitory concentration) ([1]; compound A fixed at 78.1 nM, bendamustine at its IC50): 0.300
- FIC (fractional inhibitory concentration) ([1]; compound A fixed at 156.3 nM, bendamustine at its IC50): 0.152
- FIC (fractional inhibitory concentration) ([1]; compound A fixed at 312.5 nM, bendamustine at its IC50): 0.004
- Cell viability (ratio relative to the drug-free control) ([2]; bendamustine 1.25 nM): 0.93
- Cell viability (ratio relative to the drug-free control) ([2]; bendamustine 2.5 nM): 0.87
- Cell viability (ratio relative to the drug-free control) ([2]; bendamustine 5 nM): 0.66
- Cell viability (ratio relative to the drug-free control) ([2]; bendamustine 10 nM): 0.29
- effectiveness of monotherapy (tumor growth delay) ([3]; 30 mg/kg of compound A, 15 mg/kg of bendamustine): effective
- Median Time (time for relative tumor volume to reach 1600%) ([3]; bendamustine 15 mg/kg intraperitoneally on Days 2, 3, 4, 5, 6): 24.3 days
- Tumor growth delay [3, 9]: 8.8 days
- Tumor growth delay rate [3, 9]: 56.5%

Molecule: O=P1(N(CCCl)CCCl)NCCCO1 (centres unmarked) [Cyclophosphamide, reference compound]
- effectiveness of monotherapy (tumor growth delay) ([4]; 30 or 100 mg/kg of compound A, 50 mg/kg of cyclophosphamide): effective
- Median Time (time for relative tumor volume to reach 1600%) ([4]; cyclophosphamide 50 mg/kg intraperitoneally on Days 2, 5, 9, 12): 23.4 days
- Tumor growth delay [4, 10]: 10.7 days
- Tumor growth delay rate [4, 10]: 83.9%

Molecule: Nc1ccn([C@@H]2O[C@H](CO)[C@@H](O)[C@@H]2O)c(=O)n1 [Cytarabine, reference compound]
- antitumor effect on KG-1 tumor (monotherapy) ([5]; compound A 30 mg/kg, cytarabine 50 mg/kg): antitumor effect
- T/C (ratio of relative tumor volume of treated group to control group) ([5]; cytarabine monotherapy 50 mg/kg intraperitoneally, 5-day administration and 2-day cessation, Day 16): 62.3%

Molecule: Nc1ncn([C@H]2C[C@H](O)[C@@H](CO)O2)c(=O)n1 [Decitabine, 5-aza-2′-deoxycytidine, reference compound]
- antitumor effect on KG-1 tumor (monotherapy) ([6]; compound A 30 mg/kg, decitabine 1 mg/kg): antitumor effect
- T/C (ratio of relative tumor volume of treated group to control group) ([6]; decitabine monotherapy 1 mg/kg intraperitoneally, twice a week, Day 23): 27.7%

Molecule: CS(=O)(=O)CCNCc1ccc(-c2ccc3ncnc(Nc4ccc(OCc5cccc(F)c5)c(Cl)c4)c3c2)o1 [Lapatinib, reference compound]
- effectiveness of monotherapy (tumor growth delay) ([7]; 30 or 100 mg/kg of compound A, 100 mg/kg of lapatinib): effective
- Median Time (time for relative tumor volume to reach 200%) ([7]; lapatinib 100 mg/kg orally once a day for 28 days): 34.2 days
- Tumor growth delay [7, 11]: 11.4 days
- Tumor growth delay rate [7, 11]: 50.0%

Molecule: Rituximab: anti-CD20 antibody; Rituxan (trademark) 100 mg/10 mL, purchased from Genentech [reference compound]
- effectiveness of monotherapy (tumor growth delay) ([8]; 30 mg/kg of compound A, 10 mg/kg of rituximab): effective
- Median Time (time for relative tumor volume to reach 600%) ([8]; rituximab 10 mg/kg intraperitoneally on Days 2, 9, 16): 28.4 days
- Tumor growth delay [8, 12]: 12.1 days
- Tumor growth delay rate [8, 12]: 74.2%
